Measured values as given in publication PMC7700572, “Synthesis, Kinetic and Conformational Studies of 2-Substituted-5-(β-D-glucopyranosyl)-pyrimidin-4-ones as Potential Inhibitors of Glycogen Phosphorylase” (Molecules, 2020).

Molecular target: T1, rabbit muscle glycogen phosphorylase (RMGP) (Oryctolagus cuniculus, UniProt P00489)
T1 construct: gene PYGM
T1 sequence (P00489 2-843): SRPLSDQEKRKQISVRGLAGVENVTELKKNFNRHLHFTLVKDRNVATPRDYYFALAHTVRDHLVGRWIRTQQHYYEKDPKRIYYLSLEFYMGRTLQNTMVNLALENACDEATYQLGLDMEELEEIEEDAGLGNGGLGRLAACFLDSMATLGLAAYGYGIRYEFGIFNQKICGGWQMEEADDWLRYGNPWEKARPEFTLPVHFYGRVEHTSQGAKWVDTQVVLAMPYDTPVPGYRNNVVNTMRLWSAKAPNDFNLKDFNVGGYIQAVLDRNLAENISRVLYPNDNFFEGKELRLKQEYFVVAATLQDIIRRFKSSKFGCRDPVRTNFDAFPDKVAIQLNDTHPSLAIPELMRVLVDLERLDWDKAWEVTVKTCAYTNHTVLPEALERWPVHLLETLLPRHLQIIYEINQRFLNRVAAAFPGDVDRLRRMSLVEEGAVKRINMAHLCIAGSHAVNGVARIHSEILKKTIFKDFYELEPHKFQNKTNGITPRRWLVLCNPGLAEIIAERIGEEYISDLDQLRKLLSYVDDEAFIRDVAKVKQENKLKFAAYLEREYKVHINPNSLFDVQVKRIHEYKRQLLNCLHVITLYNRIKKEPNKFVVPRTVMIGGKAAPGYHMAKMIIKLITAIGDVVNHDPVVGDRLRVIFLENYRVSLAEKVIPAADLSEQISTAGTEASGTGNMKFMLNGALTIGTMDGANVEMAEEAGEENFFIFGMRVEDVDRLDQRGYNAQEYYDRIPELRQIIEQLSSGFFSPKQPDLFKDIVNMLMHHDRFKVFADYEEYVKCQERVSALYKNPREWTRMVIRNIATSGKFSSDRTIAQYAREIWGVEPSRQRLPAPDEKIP
Assay: enzyme kinetics in the direction of glycogen synthesis, RMGP isolated from rabbit skeletal muscle, […] AMP
Type: biochemical

**Q.** `Nc1ncc([C@@H]2O[C@H](CO)[C@@H](O)[C@H](O)[C@H]2O)c(=O)[nH]1` [compound 5, 2-Amino-5-(β-D-glucopyranosyl)pyrimidin-4(3H)-one] was tested. Which IC50 did it give?
**A.** The IC50 was 396 ± 10.8 µM.

**Q.** With `O=c1[nH]cc([C@@H]2O[C@H](CO)[C@@H](O)[C@H](O)[C@H]2O)c(=O)[nH]1` [compound 4, 5-(β-D-Glucopyranosyl)pyrimidin-2,4-dione] as the compound, how does the IC50 read?
**A.** Its IC50 is 88.5 ± 4.3 µM.

**Q.** How did the IC50 turn out when `O=c1[nH]c(Nc2ccc3[nH]c4ccccc4c(=O)c3c2)ncc1[C@@H]1O[C@H](CO)[C@@H](O)[C@H](O)[C@H]1O` [compound 6, 2-[(Acridin-9(10H)-on-2-yl)amino]-5-(β-D-glucopyranosyl)pyrimidin-4(3H)-one] was run?
**A.** The IC50 was 5.4 ± 0.5 µM.
